# Reference: US20240366539A1, “METHODS FOR TREATING AUTISM SPECTRUM DISORDERS” (INSTITUT NATIONAL DE LA SANTÉ ET DE LA RECHERCHE MÉDICALE, priority 2021, published 2024)
# Entries after “also recorded” stand apart in the source; their conditions may differ.
# How the values were obtained:
# Type in all cases: in vivo, mouse
# [1] = tested on: Oprm1^−/− mice; experiment: Motor stereotypies
# Method: (§1) Mice were treated with vehicle (NaCl 0.9%; ip, 10 or 20 ml/kg), NaBr (Sigma-Aldrich, Saint-Quentin Fallavier, France) administered either chronically (once a day, 10, 30, 70, 125, 250 and 500 mg/kg; i.p. or per os, in a volume of 20 ml/kg—except for combination with VU0155041: […]) or acutely (250 mg/kg, 20 ml/kg), KBr (Sigma-Aldrich, Saint-Quentin Fallavier, France; 145 mg/kg; i.p., 20 ml/kg), bumetanide (R&D systems, Minneapolis, USA, 0.5 and 2 mg/kg; i.p., 20 ml/kg) or VU0155041 (Cayman Chemicals, Ann Arbor, USA, once a day, i.p., 1 mg/kg, 10 ml/kg). […] When treatment was given chronically, behavioral testing started 8 days after beginning of daily administration. Treatment was maintained for 8 to 18 consecutive days (see timelines in FIGS. 1 and 4), allowing thorough behavioral phenotyping. On testing days, or when treatment was given acutely, drugs (or vehicle) were administered 30 min before behavioral assays.
# (§2) Motor stereotypies. To detect motor stereotypies in mutant versus wild-type animals, mice were individually placed in clear standard home cages (21×11×17 cm) filled with 3-cm deep fresh sawdust for 10 min (64). Light intensity was set at 30 lux. Trained experimenters scored numbers of head shakes, as well as rearing, burying, grooming, circling episodes and total time spent burying by direct observation.
# [2] = tested on: Fmr1^−/− mice; experiment: Three-chamber social preference test; conditions: chronic NaBr 250 mg/kg once daily
# Method: as §1
# (§3) Three-chamber social preference test. The test apparatus consisted of a transparent acrylic box (exterior walls blinded with black plastic film); partitions divided the box into three equal chambers (40×20×22.5 cm). Two sliding doors (8×5 cm) allowed transitions between chambers. Cylindrical wire cages (18×9 cm, 0.5 cm diameter-rods spaced 1 cm apart) were used to contain the mouse interactor and object (soft-toy mouse). The test was performed in low-light conditions (15 lx) to minor anxiety. Stimulus wild-type mice were habituated to confinement in wire cages for 2 days before the test (20 min/day). On testing day, the experimental animal was introduced to the middle chamber and allowed to explore the whole apparatus for a 10-min habituation phase (wire cages empty) after the sliding doors were raised. The experimental mouse was then confined back in the middle-chamber while the experimenter introduced an unfamiliar wild type age and sex-matched animal into a wire cage in one of the side-chambers and a soft toy mouse (8×10 cm) in the second wire cage as a control for novelty. Then the experimental mouse was allowed to explore the apparatus for a 10-min interaction phase. The time spent in each chamber, the time spent in nose contact with each wire cage (empty: habituation; containing a mouse or a toy: interaction), as well as the number of these nose contacts were scored a posteriori on video recordings using an ethological keyboard (Labwatcher®, View Point, Lyon, France) by trained experimenters. […] The relative position of stimulus mice (versus toy) was counterbalanced between groups.
# (§4) To this purpose, we evaluated the effects of chronic NaBr administration at the dose of 250 mg/kg on autism-sensitive behaviors in these lines (FIG. 3A).
# [3] = tested on: Shank3^Δex13-16−/− mice; experiment: Three-chamber social preference test; conditions: Shank3Δex13-16−/− mice; chronic NaBr 250 mg/kg once daily
# Method: as §1, §3, §4
# [4] = tested on: gene expression in Oprm1 null mice (NAc, CPu, VP/Tu, MeA, VTA/SNc); experiment: Real-time quantitative PCR of brain reward/social circuit regions
# Method: Brains were removed and placed into a brain matrix (ASI Instruments, Warren, MI, USA). Nucleus accumbens (NAc), caudate putamen (CPu), ventral pallidum/olfactory tubercle (VP/Tu), medial nucleus of the amygdala (MeA) and ventral tegmental area/substancia nigra pars compacta (VTA/SNc) were punched out/dissected from 1 mm-thick slices (data not shown). Tissues were immediately frozen on dry ice and kept at −80° C. until use. For each structure of interest, genotype and condition, samples were processed individually (n=8). RNA was extracted and purified using the Direct-Zol RNA MiniPrep kit (Zymo research, Irvine, USA). cDNA was synthetized using the ProtoScript II Reverse Transcriptase kit (New England BioLabs, Évry-Courcouronnes, France). qRT-PCR was performed in quadruplets on a CFX384 Touch Real-Time PCR Detection System (Biorad, Marnes-la-Coquette, France) using iQ-SYBR Green supermix (Bio-Rad) kit with 0.25 μl cDNA in a 12 μl final volume in Hard-Shell Thin-Wall 384-Well Skirted PCR Plates (Bio-rad). Gene-specific primers were designed using Primer3 software to obtain a 100- to 150-bp product. Relative expression ratios were normalized to the level of actin and the 2^−ΔΔCt method was applied to evaluate differential expression level. Gene expression values differing of the mean by more than two standard deviations were considered as outliers and excluded from further calculations.
# To shed light on the molecular mechanism involved in beneficial effects of chronic sodium bromide administration, we assessed the effects of a 2-week NaBr treatment on gene expression in Oprm1 null mice across five regions of the brain reward/social circuit: NAc, CPu, VP/Tu, MeA and VTA/SNc. Mice underwent a first session of social interaction after one week under treatment and a second 45 min before sacrifice for qRT-PCR experiment (data not shown). We focused primarily on genes coding for chloride transporters (Slc12a2 [NKCC1], Slc12a4, 5, 6, 7 [KCC1,2,3,4, respectively], ClCa1), GABAA receptor subunits (Gabra1, 2, 3, 4, 5, Gabrb1, 2) and glutamate receptors (Grm2, 4, 5) and subunits (Grin2a, 2b). In addition, we evaluated the expression of marker genes of neuronal expression and plasticity (Fos, Bdnf), social behavior (Oxt) and striatal projection neurons (SPNs; Crh, Drd1a, Drd2, Htr6, Pdyn, Penk).
# [5] = tested on: Fmr1^−/− mice; experiment: Motor stereotypies; conditions: chronic NaBr 250 mg/kg once daily
# Method: as §1, §2, §4
# [6] = tested on: Shank3^Δex13-16−/− mice; experiment: Motor stereotypies; conditions: Shank3Δex13-16−/− mice; chronic NaBr 250 mg/kg once daily
# Method: as §1, §2, §4
# [7] = Oprm1+/+ mice, chronic NaBr 10-500 mg/kg
# [8] = Oprm1−/− mice, chronic NaBr 10-500 mg/kg or bumetanide 0.5 and 2 mg/kg
smiles,measurement,setting,value
"[Br-].[Na+] [NaBr, sodium bromide]",number of grooming episodes in wild-type controls,[1]; [7],dose-dependently increased the number of grooming episodes; also recorded: at 500 mg/kg increased the frequency of grooming episodes and head shakes
same,number of head shakes in wild-type controls,[1]; [7],dose-dependently increased; also recorded: at 500 mg/kg increased the frequency of grooming episodes and head shakes
same,number of head shakes,[1]; [8],decreased under NaBr treatment since the lowest dose; also recorded: less consistently reduced the number of head shakes (doses over 125 mg/kg)
same,stereotypic circling episodes,[1]; [8],decreased under NaBr treatment since the lowest dose
same,number of rearing episodes,"[1]; both mouse lines (Oprm1−/− and Oprm1+/+), chronic NaBr or bumetanide",increased the number of rearing episodes in a dose-dependent manner
same,duration of nose contacts with the mouse versus the object,[2],making longer nose contacts with the mouse versus the object
same,number of nose contacts with either stimulus,[2],without modifying the number of nose contacts
same,preference ratio,[2],normalized their preference ratio
same,time exploring the mouse versus the object,[2],restored a preference for spending more time exploring the mouse
same,duration of nose contacts with the mouse versus the toy,[3],made longer nose contacts with their congener versus the toy
same,number of nose contacts,[3],no change in the number of nose contacts
same,preference ratio,[3],increased preference ratio
same,time in contact with the mouse versus the toy,[3],spent more time in contact with the mouse
same,ClCa1 transcription,"[4]; CPu, mice of both genotypes, 2-week NaBr",increased ClCa1 transcription in mice of both genotypes
same,Oxt expression,"[4]; MeA and VTA/SNc, 2-week NaBr",induced Oxt expression in the MeA and VTA/SNc
same,expression of chloride transporter genes,"[4]; Oprm1−/− mice, 2-week NaBr treatment, qRT-PCR",increased the expression of all tested chloride transporters in Oprm1^−/− mice
same,"expression of Gabra3, Gabra4, Gabra5, Gabrg1 and Gabrb2","[4]; Oprm1−/− mice, CPu, 2-week NaBr","consistently upregulated the expression of Gabra3, Gabra4, Gabra5, Gabrg1 and Gabrb2 in the CPu of mutant mice"
same,Oxt mRNA levels,"[4]; Oprm1−/− mice, NAc (former) and VP/Tu (latter), 2-week NaBr",normalized by NaBr in the former and partially in the latter
same,Gabra2 expression,"[4]; Oprm1−/− mice, NAc and CPu (left high in VP/Tu and MeA), 2-week NaBr",stimulated the expression of Gabra2
same,Slc12a5 expression,"[4]; Oprm1−/− mice, NAc, CPu and MeA, 2-week NaBr",up-regulated the expression of Slc12a5 and Slc12a7
same,Slc12a7 expression,"[4]; Oprm1−/− mice, NAc, CPu, MeA and VP/Tu, 2-week NaBr",up-regulated the expression of Slc12a5 and Slc12a7
same,Fos expression,"[4]; Oprm1−/− mice, NAc, VP/Tu, CPu, 2-week NaBr",down-regulated the expression of the early gene Fos in the NAc and VP/Tu and maintained it low in the CPu
same,ClCa1 mRNA levels,"[4]; Oprm1−/− mice, NAc, VP/Tu, MeA, VTA/SNc, 2-week NaBr","normalized by NaBr treatment in the NAc, increased in the VP/Tu and maintained high in the MeA and VTA/SNc"
same,Slc12a2 expression,"[4]; Oprm1−/− mice, decreased in all brain regions but the VP/Tu before treatment, 2-week NaBr",normalized under bromide treatment
same,Grm4 expression,"[4]; all brain regions but the VTA/SNc of Oprm1−/− mice, and NAc of wild-type controls, 2-week NaBr",upregulated the expression of Grm4
same,circling episodes,[5],normalized all these parameters to WT levels
same,head shakes,[5],normalized all these parameters to WT levels
same,circling episodes,[6],normalized all these parameters to WT levels
same,head shakes,[6],normalized all these parameters to WT levels
same,spontaneous grooming,[6],normalized all these parameters to WT levels
